The target of series [1] is T1, rat mGluR5 (Rattus norvegicus, UniProt P31424).
T1 construct: expressed in transfected cells
Kind of series: mGluR5 assay on HEK-expressing rat mGluR5 (fluorescent cell based Ca2+ mobilization assay). Particulars: HEK-293 cells stably expressing rat mGluR5; no co-addition of glutamate; mean of at least three independent experiments in duplicate; read-out: Ca++ Flux (mean EC50). The method, then: mGluR5 Assay on HEK-Expressing Rat mGluR5
Positive functional expression of HEK-293 cells stably expressing rat mGluR5 receptor was determined by measuring intracellular Ca^2+ changes using a Fluorometric Imaging Plate Reader (FLIPR, Molecular Devices, Sunnyvale, Calif.) in response to glutamate or selective known mGluR5 agonists and antagonists. Rat mGluR5 RT-PCR products in HEK-293 cells were sequenced and found 100% identical to rat mGluR5 Genbank reference sequence (NM_017012). HEK-293 cells expressing rmGluR5 were maintained in media containing DMEM, dialyzed Fetal Bovine Serum (10%), Glutamax™ (2 mM), Penicillin (100 units/ml), Streptomycin (100 μg/ml), Geneticin (100 μg/ml) and Hygromycin-B (40 μg/ml) at 37° C./5% CO2.
After one day of incubation, cells were washed with assay buffer containing: 142 mM NaCl, 6 mM KCl, 1 mM […], 1 mM CaCl2, 20 mM HEPES, 1 g/L glucose, 0.125 mM sulfinpyrazone, pH 7.4. After 60 min of loading with 4 uM Fluo-4 (TefLabs, Austin, Tex.), the cells were washed three times with 50 μl of PBS Buffer and resuspended in 45 μl of assay Buffer. The plates were then transferred to a Fluorometric Imaging Plate Reader (FLIPR, Molecular Devices, Sunnyvale, Calif.) for the assessment of intracellular calcium flux. After monitoring the baseline fluorescence for 10 seconds, increasing concentrations of representative compound (from 0.01 to 60 μM) of the present invention diluted in Assay Buffer (15 μl of 4× dilutions) was added to the cell. The final DMSO concentration in the assay was 0.3%. In each experiment, fluorescence was then monitored as a function of time for 3 minutes and the data analyzed using Microsoft Excel and GraphPad Prism. Each data point was also measured two times.
Under these experimental conditions, this HEK-rat mGluR5 cell line is able to directly detect positive allosteric modulators without the need of co-addition of glutamate or mGluR5 agonist.
The concentration-response curves of representative compounds of the present invention were generated using the Prism GraphPad software (Graph Pad Inc, San Diego, USA). The curves were fitted to a four-parameter logistic equation:
(Y=Bottom+(Top−Bottom)/(1+10̂((Log EC50−X)*Hill Slope)
allowing determination of EC50 values.
The Table 1 below represents the mean EC50 obtained from at least three independent experiments of selected molecules performed in duplicate.

Each structure is given as a SMILES string. Bounds are passed on as bounds.

In general, melting point refers to the temperature, or range, at which the solid turns liquid. As usually defined, the EC50 is the concentration needed to bring the measured effect to its halfway point.

T1 sequence (P31424 21-1171 isoform P31424-2 limits assumed): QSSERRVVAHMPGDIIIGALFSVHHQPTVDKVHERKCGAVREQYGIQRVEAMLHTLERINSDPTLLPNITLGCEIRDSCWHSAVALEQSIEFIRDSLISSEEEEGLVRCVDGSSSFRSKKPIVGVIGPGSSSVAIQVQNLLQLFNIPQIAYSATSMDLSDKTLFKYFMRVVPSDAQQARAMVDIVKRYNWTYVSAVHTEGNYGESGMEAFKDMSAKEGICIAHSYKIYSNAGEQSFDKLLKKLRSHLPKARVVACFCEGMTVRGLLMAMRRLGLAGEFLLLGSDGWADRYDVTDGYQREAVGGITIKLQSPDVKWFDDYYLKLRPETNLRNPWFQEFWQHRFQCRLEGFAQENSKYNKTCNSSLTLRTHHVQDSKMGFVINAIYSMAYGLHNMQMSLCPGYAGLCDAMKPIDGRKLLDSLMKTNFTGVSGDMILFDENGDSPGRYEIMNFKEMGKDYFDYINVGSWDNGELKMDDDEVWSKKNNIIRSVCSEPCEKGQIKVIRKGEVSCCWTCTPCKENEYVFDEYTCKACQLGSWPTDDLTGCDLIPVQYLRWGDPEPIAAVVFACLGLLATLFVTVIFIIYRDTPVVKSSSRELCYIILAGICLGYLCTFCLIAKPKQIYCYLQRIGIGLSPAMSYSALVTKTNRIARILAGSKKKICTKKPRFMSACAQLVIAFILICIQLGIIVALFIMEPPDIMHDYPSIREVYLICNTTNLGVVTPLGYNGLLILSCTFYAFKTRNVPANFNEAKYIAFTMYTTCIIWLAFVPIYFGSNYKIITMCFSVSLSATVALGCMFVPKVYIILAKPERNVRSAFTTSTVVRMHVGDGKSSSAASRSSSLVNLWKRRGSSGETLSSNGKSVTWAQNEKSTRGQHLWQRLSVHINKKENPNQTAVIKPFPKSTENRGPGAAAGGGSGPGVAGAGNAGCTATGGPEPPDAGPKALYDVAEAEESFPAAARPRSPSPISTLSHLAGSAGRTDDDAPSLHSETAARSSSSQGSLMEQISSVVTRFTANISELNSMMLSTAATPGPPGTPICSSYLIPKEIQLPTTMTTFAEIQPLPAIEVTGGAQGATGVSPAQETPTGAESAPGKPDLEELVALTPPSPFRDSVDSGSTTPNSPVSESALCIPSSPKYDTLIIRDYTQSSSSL

As for `O=C(c1ccc(F)cc1)N1CCC=C(c2nc(-c3ccc(F)cc3)no2)C1` [Example 1, (4-Fluoro-phenyl)-{5-[3-(4-fluoro-phenyl)-[1,2,4]oxadiazol-5-yl]-3,6-dihydro-2H-pyridin-1-yl}-methanone], the melting point lay within 138 to 140 °C. Further, the EC50 in series [1] lay within 1000 to 10000 nM.
For `O=C(c1ccc(F)cc1)N1CCCC1Cc1nc(-c2ccc(F)cc2)no1` (centres unmarked) [Example 2, (4-Fluoro-phenyl)-{2-[3-(4-fluoro-phenyl)-[1,2,4]oxadiazol-5-ylmethyl]-pyrrolidin-1-yl}-methanone], in that order: 158 to 162 °C and 1000 to 10000 nM.
In the case of `N#Cc1cc(C(=O)N2CCC[C@H](c3nc(-c4ccc(F)cc4)no3)C2)ccc1F` [Example 3, 2-Fluoro-5-{(S)-3-[3-(4-fluoro-phenyl)-[1,2,4]oxadiazol-5-yl]-piperidine-1-carbonyl}-benzonitrile], the melting point was 144 to 146 °C. Also, the EC50 in series [1] fell in the range of 1000 to 10000 nM.
In the same order, the values of `O=C(C1CCSCC1)N1CCC[C@H](c2nc(-c3ccc(F)cc3)no2)C1` [Example 7, {(S)-3-[3-(4-Fluoro-phenyl)-[1,2,4]oxadiazol-5-yl]-piperidin-1-yl}-(tetrahydro-thiopyran-4-yl)-methanone] are 139 to 141 °C and 1000 to 10000 nM.
As for `Cc1ccccc1-c1noc([C@H]2CCCN(C(=O)c3ccc(F)cc3)C2)n1` [Example 48, (4-Fluoro-phenyl)-[(S)-3-(3-o-tolyl-[1,2,4]oxadiazol-5-yl)-piperidin-1-yl]-methanone], the EC50 in series [1] was over 10000 nM.
Same read-out and setting: for `CNc1ccccc1C(=O)N1CCC[C@H](c2nc(-c3ccc(F)cc3)no2)C1` [Example 49, {(S)-3-[3-(4-Fluoro-phenyl)-[1,2,4]oxadiazol-5-yl]-piperidin-1-yl}-(2-methylamino-phenyl)-methanone] the value was 1000 to 10000 nM; for `Cc1cc(F)ccc1C(=O)N1CCC[C@H](c2nc(-c3ccncc3)no2)C1` [Example 53, (4-Fluoro-2-methyl-phenyl)-[(S)-3-(3-pyridin-4-yl-[1,2,4]oxadiazol-5-yl)-piperidin-1-yl]-methanone], 1000 to 10000 nM; for `O=C(c1ccccc1NCc1ccccc1)N1CCC[C@H](c2nc(-c3ccc(F)cc3)no2)C1` [Example 55, (2-Benzylamino-phenyl)-{(S)-3-[3-(4-fluoro-phenyl)-[1,2,4]oxadiazol-5-yl]-piperidin-1-yl}-methanone], over 10000 nM.
The same measure, in the same setting: for `Cc1oncc1C(=O)N1CCC[C@H](c2nc(-c3ccccc3)no2)C1` [Example 56, (5-Methyl-isoxazol-4-yl)-[(S)-3-(3-phenyl-[1,2,4]oxadiazol-5-yl)-piperidin-1-yl]-methanone] the value was under 1000 nM; for `O=C(c1ccc(F)cc1)N1CCC[C@H](c2nc(-c3cnccn3)no2)C1` [Example 57, (4-Fluoro-phenyl)-[(S)-3-(3-pyrazin-2-yl-[1,2,4]oxadiazol-5-yl)-piperidin-1-yl]-methanone], over 10000 nM.
The same measure, in the same setting: the same measure for `O=C(c1ccc(F)cc1F)N1CCC[C@H](c2nc(-c3ccccc3)no2)C1` [Example 59, (2,4-Difluoro-phenyl)-[(S)-3-(3-phenyl-[1,2,4]oxadiazol-5-yl)-piperidin-1-yl]-methanone]: under 1000 nM; for `O=C(c1ccc(F)cc1F)N1CCC[C@H](c2nc(-c3ccccc3F)no2)C1` [Example 60, (2,4-Difluoro-phenyl)-{(S)-3-[3-(2-fluoro-phenyl)-[1,2,4]oxadiazol-5-yl]-piperidin-1-yl}-methanone]: under 1000 nM.
Take `Cc1oncc1C(=O)N1CCC[C@H](c2nc(-c3ccccc3F)no2)C1` [Example 61, {(S)-3-[3-(2-Fluoro-phenyl)-[1,2,4]oxadiazol-5-yl]-piperidin-1-yl}-(5-methyl-isoxazol-4-yl)-methanone]: the 50% effective concentration (EC50) in series [1] is under 1000 nM.
Still for that read-out and setting: for `O=C(c1ccc(F)nc1)N1CCC[C@H](c2nc(-c3ccccc3)no2)C1` [Example 62, (6-Fluoro-pyridin-3-yl)-[(S)-3-(3-phenyl-[1,2,4]oxadiazol-5-yl)-piperidin-1-yl]-methanone] the value was under 1000 nM; for `Cc1cc(F)ccc1C(=O)N1CCC[C@H](c2nc(-c3ccccc3)no2)C1` [Example 63, (4-Fluoro-2-methyl-phenyl)-[(S)-3-(3-phenyl-[1,2,4]oxadiazol-5-yl)-piperidin-1-yl]-methanone], 1000 to 10000 nM.
The same measure, in the same setting: the same measure for `O=C(c1ccc(F)nc1)N1CCC[C@H](c2nc(-c3ccccc3F)no2)C1` [Example 64, {(S)-3-[3-(2-Fluoro-phenyl)-[1,2,4]oxadiazol-5-yl]-piperidin-1-yl}-(6-fluoro-pyridin-3-yl)-methanone]: under 1000 nM; for `Cc1oncc1C(=O)N1CCC[C@H](c2nc(-c3ccc(F)cc3F)no2)C1` [Example 65, {(S)-3-[3-(2,4-Difluoro-phenyl)-[1,2,4]oxadiazol-5-yl]-piperidin-1-yl}-(5-methyl-isoxazol-4-yl)-methanone]: 1000 to 10000 nM.
On the same count and under the same terms, for `O=C(c1ccc(F)nc1)N1CCC[C@H](c2nc(-c3ccc(F)cc3F)no2)C1` [Example 66, {(S)-3-[3-(2,4-Difluoro-phenyl)-[1,2,4]oxadiazol-5-yl]-piperidin-1-yl}-(6-fluoro-pyridin-3-yl)-methanone] the value was under 1000 nM; for `Cc1cc(F)ccc1C(=O)N1CCC[C@H](c2nc(-c3ccc(F)cc3F)no2)C1` [Example 67, {(S)-3-[3-(2,4-Difluoro-phenyl)-[1,2,4]oxadiazol-5-yl]-piperidin-1-yl}-(4-fluoro-2-methyl-phenyl)-methanone], 1000 to 10000 nM.
In the case of `O=C(c1ccc(F)c(F)c1)N1CCC[C@H](c2nc(-c3ccc(F)cc3F)no2)C1` [Example 68, (3,4-Difluoro-phenyl)-{(S)-3-[3-(2,4-difluoro-phenyl)-[1,2,4]oxadiazol-5-yl]-piperidin-1-yl}-methanone], in series [1], the EC50 is under 1000 nM.
Consider `O=C(c1ccc(F)cc1F)N1CCC[C@H](c2nc(-c3ccc(F)cc3F)no2)C1` [Example 69, (2,4-Difluoro-phenyl)-{(S)-3-[3-(2,4-difluoro-phenyl)-[1,2,4]oxadiazol-5-yl]-piperidin-1-yl}-methanone], for which the EC50 in series [1] fell in the range of 1000 to 10000 nM.
Same read-out and setting: the same measure for `O=C(c1ccc(F)cc1F)N1CCC[C@H](c2nc(-c3ccccn3)no2)C1` [Example 70, (2,4-Difluoro-phenyl)-[(S)-3-(3-pyridin-2-yl-[1,2,4]oxadiazol-5-yl)-piperidin-1-yl]-methanone]: 1000 to 10000 nM; for `Cc1cc(F)ccc1C(=O)N1CCC[C@H](c2nc(-c3ccccc3F)no2)C1` [Example 71, (4-Fluoro-2-methyl-phenyl)-{(S)-3-[3-(2-fluoro-phenyl)-[1,2,4]oxadiazol-5-yl]-piperidin-1-yl}-methanone]: 1000 to 10000 nM; for `Cc1ncc(-c2noc([C@H]3CCCN(C(=O)c4ccc(F)cc4)C3)n2)s1` [Example 72, (4-Fluoro-phenyl)-{(S)-3-[3-(2-methyl-thiazol-5-yl)-[1,2,4]oxadiazol-5-yl]-piperidin-1-yl}-methanone]: 1000 to 10000 nM.
On the same count and under the same terms, for `Cc1ncc(-c2noc([C@H]3CCCN(C(=O)c4ccc(F)nc4)C3)n2)s1` [Example 73, (6-Fluoro-pyridin-3-yl)-{(S)-3-[3-(2-methyl-thiazol-5-yl)-[1,2,4]oxadiazol-5-yl]-piperidin-1-yl}-methanone] the value was over 10000 nM.
Still for that read-out and setting: for `Cc1ncc(-c2noc([C@H]3CCCN(C(=O)c4ccc(F)cc4F)C3)n2)s1` [Example 74, (2,4-Difluoro-phenyl)-{(S)-3-[3-(2-methyl-thiazol-5-yl)-[1,2,4]oxadiazol-5-yl]-piperidin-1-yl}-methanone] the value was 1000 to 10000 nM; for `Cc1ncc(-c2noc([C@H]3CCCN(C(=O)c4ccc(F)c(F)c4)C3)n2)s1` [Example 75, (3,4-Difluoro-phenyl)-{(S)-3-[3-(2-methyl-thiazol-5-yl)-[1,2,4]oxadiazol-5-yl]-piperidin-1-yl}-methanone], 1000 to 10000 nM; for `O=C(c1ccc(OC(F)(F)F)cc1)N1CCC[C@H](c2nc(-c3ccc(F)cc3)no2)C1` [Example 76, {(S)-3-[3-(4-Fluoro-phenyl)-[1,2,4]oxadiazol-5-yl]-piperidin-1-yl}-(4-trifluoromethoxy-phenyl)-methanone], 1000 to 10000 nM.
